Source: patent publication US7700352B2, “Composition for culturing mouse pluripotent stem cells” (Riken, priority 2002, dated 2010)
No end group written: not given here.

Columns and labels:
[1] = system: feeder cell-independent ES cells (E14tg2a, CGR8); test: Formation of colonies of undifferentiated ES cells in medium free of serum and feeder cells (GMEM + LIF + 2-ME + KSR), Leischman staining; format: cell-based, mouse; details: for relative potency of the colony-forming capability: comparison among candidate peptides / ACTH fragments; for capability to form a colony of undifferentiated cells: peptide at 1 μM in medium with LIF + 2-ME + KSR
Experimental: One hundred of the feeder cell-independent ES cells (E14tg2a (Hooper, M. et al., Nature, 325, 292 (1987)), CGR8 (Mountford, P. et al., Proc. Natl. Acad. Sci. USA, 91, 4303 (1994)), and ES cells derived therefrom) were incubated on the gelatinated 12-well plate treated with a 0.1% (w/v) gelatin solution at 37° C. in 5% CO2 in one ml of a culture medium of Glasgow minimum essential medium (GMEM; Sigma) used as a cell culture minimum medium supplemented with (1) 1×10^3 U/ml LIF (ESGRO, Invitrogen), (3) 0.1 μM 2-mercaptoethanol (Nacalai Tesque), and (5) 10% (v/v) KSR (Invitrogen) per well.
Five days or more after the incubation, the supernatant was removed by aspiration, and then a Leischman staining liquid (1.5 g Leischman Staining: Sigma/L methanol) was added to the plate until the liquid covered all of the surface of the plate. The plate was left at room temperature for 10 minutes, and rinsed with water (Leischman staining). For the blue-stained colonies, no formation of colonies that maintained their morphology in an undifferentiated state was shown by the naked eye and light microscopy (FIG. 1 (g)). When the ES cells were incubated in a culture medium wherein the medium described above was supplemented with 0.3% (v/v) FCS (2), an average of 17 colonies of undifferentiated cells was observed (FIG. 1 (d)). […] Further, a formation of colonies of undifferentiated cells was observed when the ES cells were incubated at 1000 or more per well in the culture medium having the same composition ((1)+(3)+(5)). When the conditioned medium (CM) was added to a culture medium at a final concentration of 10% (v/v), and 100 ES cells per well were incubated therein, then an average of 7 colonies of undifferentiated cells was observed (FIG. 1 (f)).
Subsequently, a candidate peptide that had been selected from diverse known growth factors, cytokines, peptide hormones and the like, was added to the culture medium comprising (1)+(3)+(5), and the ES cells were incubated therein at 37° C. in 5% CO2 so that a capability of the candidate to form a colony of undifferentiated cells was determined. […] It should be noted that FIG. 1 (a) to (c) show the results obtained from the medium consisting of GMEM, LIF and 2-ME, supplemented with FCS+feeder cells, KSR+feeder cells, and FCS, respectively.
In a similar manner to the above, ACTH and the fragments thereof were added to the culture medium at a final concentration of 1 μM wherein (1) LIF, (3) 2-ME, and (5) KSR were supplemented to a cell culture minimum medium.
ACHT has been known to activate an ACTH receptor belonging to G-protein-coupled receptor families, which receptor activates an adenylate cyclase activity through the activation of trimeric G proteins containing the Gα s subunit. Now, to a cell culture minimum medium supplemented with (1) 1×10^3 U/ml LIF, (3) 0.1 μM 2-ME, (5) 10% (v/v) KSR, and (6) 10 μM ACTH, an inhibitor of an adenylate cyclase activity, SQ22536 (9-(tetrahydro-2-furanyl)adenine) (Sigma) at 100 μM, was further added, and the resultant medium was used to culture the ES cells in a similar manner to that of Example 1.
In order to check the effect of sole SQ22536, a cell culture minimum medium supplemented with (1) 1×10^3 U/ml LIF, (3) 0.1 μM 2-ME, (5) 10% (v/v) KSR, and (7) SQ22536 100 μM was used to culture the ES cells in a similar manner to that of Example 1. As a result, an average of nine colonies of undifferentiated cells was observed. Further, even when the medium added with another inhibitor of an adenylate cyclase activity, 2′,5′-dideoxyadenosine (Sigma) 500 μM, was used, an average of eight colonies of undifferentiated cells was observed. […]

[2] = system: inner cell masses of C57BL/6 blastocysts; test: Establishment of ES cell lines from inner cell masses of blastocysts in serum-free, feeder-free medium; format: cell-based, mouse; details: 10 μM ACTH, LIF, 2-ME, KSR, fibronectin-coated plate; thirty C57BL/6 embryos
Experimental: Thirty embryos at blastocyst stage of 3.5 days old were removed from C57BL/6 inbred mouse strains, and the inner cell masses isolated from the embryos by immunosurgery were individually incubated in the culture medium consisting of CCMM, (1) 1×10^3 U/ml LIF, (3) 0.1 μM 2-ME, 0.1 mM non-essential amino acids, 1 mM sodium pyruvate, (5) 10% (v/v) KSR, and (6) 10 μM ACTH on a plate coated with fibronectin.

[3] = system: ES cells injected into the mouse blastocyst; test: Chimeric mouse production from ES cells injected into the mouse blastocyst (retention of pluripotency); format: in vivo; details: ES cells cultured with 1 nM adrenocorticotropic hormone
Experimental: The undifferentiated ES cells derived from the colonies obtained by the culture with 1 nM adrenocorticotropic hormone in Example 1 as described above were further subcultured twice, and the resultant cells were injected into the mouse blastocyst to complete the transplantation into the pseudopregnant mouse uterus.

[4] = SQ22536 100 μM added to medium with 10 μM ACTH, 7th day
[5] = 10 μM ACTH (1-24), compared with 0.3% FCS or 10% CM
[6] = pertussis toxin 100 ng/ml added to medium with 10 μM ACTH

Compound: C[C@H]1O[C@@H](n2cnc3c(N)ncnc32)C[C@@H]1O [2′,5′-dideoxyadenosine]
- average number of colonies of undifferentiated cells ([1]; 2′,5′-dideoxyadenosine 500 μM in LIF + 2-ME + KSR medium): eight

Compound: Nc1ncnc2c1ncn2C1CCCO1 (stereo not drawn) [SQ22536, 9-(tetrahydro-2-furanyl)adenine]
- formation of colonies of undifferentiated cells [1, 4]: no formation of colonies of undifferentiated cells was unexpectedly inhibited
- size of individual colonies [1, 4]: significantly increased
- average number of colonies of undifferentiated cells ([1]; SQ22536 100 μM alone (no ACTH) in LIF + 2-ME + KSR medium): nine

Compound: ACTH (1-24): fragment of ACTH, amino acids from the N-terminus 1 to 24
- cell proliferation rate [1, 5]: equivalent to that in the case of 0.3% FCS or 10% CM
- formation rate of undifferentiated cell colonies [1, 5]: equivalent to that in the case of 0.3% FCS or 10% CM
- relative potency of the colony-forming capability [1]: most potent capability among the fragments having a capability
- formation of the colony of undifferentiated cells ([1]; final concentration of 0.1 μM): showed the formation of the colony of undifferentiated cells
- capability to form a colony of undifferentiated cells [1]: showed to have the capability

Compound: ACTH (11-24): fragment of ACTH, amino acids 11 to 24 (KPVGKKRRPVKVYP; Corticotropin; UniProt P01189 148-161, looked up, fragment)
- capability to form a colony of undifferentiated cells [1]: showed to have the capability

Compound: ACTH (18-39): fragment of ACTH, amino acids 18 to 39 (RPVKVYPNGAEDESAEAFPLEF; Corticotropin; UniProt P01189 155-176, looked up, fragment)
- capability to form a colony of undifferentiated cells [1]: showed to have no capability

Compound: adrenocorticotropic hormone (SYSMEHFRWGKPVGKKRRPVKVYPNGAEDESAEAFPLEF; Corticotropin; UniProt P01189 138-176, looked up) [ACTH, peptide hormone composed of 39 amino acid residues (ACTH (1-39))]
- inner cells that initiated proliferation and finally established ES cell lines [2]: at least two
- relative potency of the colony-forming capability [1]: the capability at the lowest concentration among the candidate peptides
- capability to form a colony of undifferentiated cells ([1]; listed as ACTH (1-39)): showed to have the capability
- capability to form a colony of undifferentiated cells ([1]; listed as adrenocorticotropic hormone): formation of colonies of undifferentiated ES cells having the apparent morphology was observed
- chimeric mice with an ES cell contribution ratio of 70% or more (hair color) [3]: 17 litters
- contribution of the ES cells to the germ cell line (inbreeding) [3]: the inbreeding showed the contribution of the ES cells to the germ cell line
- female litters among the 17 chimeric litters [3]: 14 litters
- litters survived three weeks or more after birth [3]: 30 litters
- litters produced from 100 transplanted embryos ([3]; subcultured twice, injected into blastocyst): 33 litters

Compound: brain natriuretic peptide
- capability to form a colony of undifferentiated cells [1]: formation of colonies of undifferentiated ES cells having the apparent morphology was observed

Compound: pertussis toxin
- effect of ACTH on colony formation [1, 6]: the effect of ACTH was inhibited
- size of the colonies of undifferentiated cells [1, 6]: drastically decreased

Compound: pituitary adenylate cyclase activating polypeptide (HSDGIFTDSYSRYRKQMAVKKYLAAVLGKRYKQRVKNK; ends and bridges not checked; UniProt P18509 132-169, looked up)
- capability to form a colony of undifferentiated cells [1]: formation of colonies of undifferentiated ES cells having the apparent morphology was observed
